Assay results from patent US20130109620A1, “BALAGLITAZONE COMPOSITIONS AND METHODS” (RHEOSCIENCE A/S, priority 2009, published 2013).
Counter-ions that a name gives are not always drawn. Like-named read-outs stand apart in the source and are kept apart here.

Tests used:
[1] = system: T2D patients on stable insulin therapy; experiment: 26-week clinical study: glycemic control (HbA1c, FSG, 7-point glucose, serum insulin, insulin dose); type: in vivo, human; settings: for HbA1c level decrease compared to placebo / post-prandial glucose reduction (7-point glucose test) compared to placebo / fasting serum glucose (FSG) reduction compared to placebo: 26 weeks
Description: Subjects were required to meet the following criteria to be included in the study: type 2 diabetes mellitus being diagnosed at least three months earlier according to the 1999 World Health Organisation criteria; age ≧18 years; body mass index (“BMI”)≧25 kg/m^2; HbA1c≧7%; and treatment with insulin on a stable dose of at least 30 U/day (±4 U/day), for at least 75 days, although insulin adjustments to resolve short term acute disease were permitted. […] All tablets were contained in an identical capsule. Subjects, study-site personnel, and sponsors were all blinded. One screening visit was conducted four weeks before randomization, and at week zero, subjects meeting the inclusion and exclusion criteria were assessed for safety. Subjects visited the clinics at the screening visit, at baseline, and at weeks 4, 8, 12, 16, 20 and 26. At each visit, fasting blood samples were collected for analysis of glycemic control, lipids, and clinical chemistry. All laboratory analyses were performed by a central laboratory. Subjects were instructed to keep their usual diet. They were supplied with a plasma glucose meter and instructed regarding how to obtain 7-point plasma glucose profiles. The values of the 7-point measurement performed within the last week before visits 2, 3, 4, 5, 6, 7 and 8 were included in the study. The 7-point plasma glucose profile consisted of glucose levels before each meal (breakfast, lunch, and dinner), 90 minutes after the start of each of those meals, and at bedtime.

[2] = 26-week clinical study: body weight; type: in vivo, human; settings: 26 weeks, p<0.0001
Description: (§1) All tablets were contained in an identical capsule. Subjects, study-site personnel, and sponsors were all blinded.

[3] = system: T2D patients on stable insulin therapy; experiment: 26-week clinical study: lower leg volume by volume of water displacement (VWD); type: in vivo, human; settings: 26 weeks
Method: as §1
Lower leg volume of both legs was determined using the volume of water displacement (“VWD”) method at visits 2 and 8, using Partial Leg Baseline Volumetric Edema Gauges (26).

[4] = system: T2D patients on stable insulin therapy; experiment: 26-week clinical study: body composition and total body BMD by DXA; type: in vivo, human; settings: 26 weeks
Method: All tablets were contained in an identical capsule. Subjects, study-site personnel, and sponsors were all blinded. Body composition was measured by Dual Energy X-ray Absorptiometry (“DXA”) on visits 2 and 8, in which total body lean (“LTM”), fat tissue mass (“FTM”), and bone mineral density (“BMD”) were measured. Subjects were instructed to fast, beginning at 10 PM the night before body composition measurements. […] The scans were conducted using Lunar DPX (GE Healthcare Worldwide), Hologic™ (Hologic™, Hologic (UK) Limited, UK), or Norland (Norland Medical Systems, Inc.) whole body scanners, and each individual was scanned with the same scanner at both visits.

[5] = system: T2D patients on stable insulin therapy; experiment: 26-week clinical study: serum biochemistry (ALP, lipids, NT-proBNP); type: in vivo, human; settings: 26 weeks
Method: All tablets were contained in an identical capsule. Subjects, study-site personnel, and sponsors were all blinded. One screening visit was conducted four weeks before randomization, and at week zero, subjects meeting the inclusion and exclusion criteria were assessed for safety. Subjects visited the clinics at the screening visit, at baseline, and at weeks 4, 8, 12, 16, 20 and 26. At each visit, fasting blood samples were collected for analysis of glycemic control, lipids, and clinical chemistry. All laboratory analyses were performed by a central laboratory.

[6] = system: T2D patients on stable insulin therapy; experiment: 26-week clinical study: systolic and diastolic blood pressure; type: in vivo, human; settings: 26 weeks, placebo −1.7
Description: as §1
Any abnormalities were registered.

[7] = subjects on stable insulin therapy, 24-week period, reference (28), cited from earlier work
[8] = system: T2D patients on stable insulin therapy; experiment: 26-week clinical study: adverse events and tolerability; settings: for subjects with AEs of special interest (strain on the heart or bone fractures): placebo 12%; for subjects who withdrew due to an AE: placebo 15%
[9] = pioglitazone 45 mg once daily, p<0.0001
[10] = balaglitazone 10 mg once daily, p<0.01
[11] = balaglitazone 20 mg once daily, p<0.0001

CCc1ccc(CCOc2ccc(CC3SC(=O)NC3=O)cc2)nc1 (racemic) [pioglitazone, [(±)-5-[[4-[2-(5-ethyl-2-pyridinyl)ethoxy]phenyl]methyl]-2,4-]thiazolidinedione monohydrochloride, reference compound]
HbA1c level decrease compared to placebo [1, 9]: −1.22% | post-prandial glucose reduction (7-point glucose test) compared to placebo [1, 9]: -2.6 mmol/L | fasting serum glucose (FSG) reduction compared to placebo ([1]; pioglitazone 45 mg once daily, p<0.05): -1.4 mmol/L | body weight increase compared to placebo ([2]; pioglitazone 45 mg once daily): 4.5 kg | lower leg volume (VWD) compared with placebo ([3]; pioglitazone 45 mg once daily): significantly increased lower leg volume | total body bone mineral density (TB-BMD) compared with placebo ([4]; pioglitazone 45 mg once daily, no significant change): trend toward loss of bone | serum NT-proBNP compared to placebo ([5]; pioglitazone 45 mg once daily): significant increase | systolic blood pressure reduction ([6]; pioglitazone 45 mg once daily, SE 0.9): −3.0 mmHg | diastolic blood pressure reduction ([6]; pioglitazone 45 mg once daily, SE 1.5): −3.9 mmHg | weight increase ([7]; pioglitazone 30 mg): 2.9 kg | weight increase ([7]; pioglitazone 45 mg): 3.4 kg | influenza, total number of events ([8]; pioglitazone 45 mg group): 10 | number of heart failures ([8]; pioglitazone 45 mg group): 3 | subjects reporting adverse events ([8]; pioglitazone 45 mg group, out of 102 subjects): 75 subjects | subjects reporting influenza ([8]; pioglitazone 45 mg group, placebo 3%): 9% | subjects reporting nasopharyngitis ([8]; pioglitazone 45 mg group, placebo 10%): 3% | subjects with AEs of special interest (strain on the heart or bone fractures) ([8]; pioglitazone 45 mg group): 25% | subjects who withdrew due to an AE ([8]; pioglitazone 45 mg group): 8%

Cn1c(COc2ccc(CC3SC(=O)NC3=O)cc2)nc2ccccc2c1=O (stereo not shown) [balaglitazone, 5[4-(3-methyl-4-oxo-3,4-dihydroquinazolin-2-ylmethoxy)-benzyl]-thiazolidine-2,4-dione]
glucose-lowering capabilities compared to pioglitazone 45 mg ([1]; balaglitazone 10 mg dose): equipotent | HbA1c level decrease compared to placebo ([1]; balaglitazone 10 mg once daily, p<0.0001): −0.99% | post-prandial glucose reduction (7-point glucose test) compared to placebo [1, 10]: -1.6 mmol/L | fasting serum glucose (FSG) reduction compared to placebo ([1]; balaglitazone 10 mg once daily, p=0.01): -1.4 mmol/L | HbA1c level decrease compared to placebo [1, 11]: −1.11% | post-prandial glucose reduction (7-point glucose test) compared to placebo [1, 11]: -2.5 mmol/L | fasting serum glucose (FSG) reduction compared to placebo ([1]; balaglitazone 20 mg once daily, p<0.001): -1.8 mmol/L | body weight increase compared to placebo ([2]; balaglitazone 10 mg once daily): 3.1 kg | body weight increase compared to placebo ([2]; balaglitazone 20 mg once daily): 4.7 kg | lower leg volume (VWD) compared with placebo ([3]; balaglitazone 10 mg once daily): no significant increase in leg volume | lower leg volume (VWD) compared with placebo ([3]; balaglitazone 20 mg once daily): significantly increased lower leg volume | total body bone mineral density (TB-BMD) compared to placebo ([4]; balaglitazone 10 mg and 20 mg groups): neither of the balaglitazone groups showed any indication of bone loss | whole body fat accumulation compared to pioglitazone 45 mg ([4]; balaglitazone 10 mg once daily): trend toward lower fat accumulation | fat mass gain in the legs compared to the pioglitazone group [4, 10]: significantly less fat mass | LDL cholesterol levels and total cholesterol ([5]; balaglitazone 10 mg and 20 mg): neither LDL cholesterol levels nor total cholesterol changed | HDL cholesterol levels compared to placebo ([5]; balaglitazone 10 mg and 20 mg, p<0.001 for both groups): significantly increased | reduction in serum ALP compared to the pioglitazone 45 mg group ([5]; balaglitazone 10 mg once daily): significantly smaller | serum NT-proBNP compared to placebo ([5]; balaglitazone 10 mg once daily): only a trend was observed | serum NT-proBNP compared to placebo ([5]; balaglitazone 20 mg once daily): significant increase | increase in NT-proBNP compared to the pioglitazone 45 mg group ([5]; balaglitazone 20 mg once daily, p<0.01): significantly larger | diastolic blood pressure reduction ([6]; balaglitazone 10 mg once daily, SE 0.9): −1.8 mmHg | diastolic blood pressure reduction ([6]; balaglitazone 20 mg once daily, SE 1.0): −2.2 mmHg | tolerability throughout the study ([8]; balaglitazone 10 mg and 20 mg, 26 weeks): well-tolerated | heart failure, peripheral oedema and myocardial infarction compared to the remaining groups ([8]; balaglitazone 10 mg group): numerically lower | number of heart failures ([8]; balaglitazone 10 mg group): 0 | percentage of serious adverse events ([8]; balaglitazone 10 mg group): 6% | subjects reporting adverse events ([8]; balaglitazone 10 mg group, out of 99 subjects): 81 subjects | subjects with AEs of special interest (strain on the heart or bone fractures) ([8]; balaglitazone 10 mg group): 10% | subjects who withdrew due to an AE ([8]; balaglitazone 10 mg group): 16% | percentage of serious adverse events ([8]; balaglitazone 20 mg group): 11% | subjects reporting adverse events ([8]; balaglitazone 20 mg group, out of 99 subjects): 77 subjects | subjects with AEs of special interest (strain on the heart or bone fractures) ([8]; balaglitazone 20 mg group): 19% | subjects who withdrew due to an AE ([8]; balaglitazone 20 mg group): 17% | number of fractures observed ([8]; balaglitazone 20 mg group, the only fracture in the study): one
